This note sets out measurements from PubChem BioAssay (NCI).

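Where inhibition never reached the appropriate level, the endpoint shown equals the highest concentration tested. Otherwise, values were interpolated linearly from a five-concentration, 48-hour dose response in 96-well plates. Here, GI50 denotes the concentration required for 50% inhibition of growth. TGI is the concentration that stops growth completely.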 Where only a bound is given, the exact number is not on record here.

Some test systems named below: A498 renal; CAKI-1 renal; HCT-15 colon; HS 578T breast; M14 melanoma; MALME-3M melanoma; OVCAR-8 ovarian; SK-MEL-28 melanoma; SW-620 colon; UACC-257 melanoma.
Common to all, as to test: inhibition of tumour cell growth, NCI panel, 48 h

On to `COc1cc(Nc2ncc3c(C)nc(-c4cccc(Oc5ccccc5)c4)n3n2)cc(OC)c1OC`, for which the GI50 in the assay with A498 renal was 2.03 µM; in the assay with CAKI-1 renal it was 1.24 µM; with HCT-15 colon it was 2.5 µM; in the assay on HS 578T breast it was 7.51 µM; with M14 melanoma, 3.54 µM; in the assay on MALME-3M melanoma it was 5.32 µM. Besides, the GI50 was 5.15 µM with OVCAR-8 ovarian, 7.63 µM in the assay on SK-MEL-28 melanoma, 9.61 µM in the assay on SW-620 colon and 10.4 µM with UACC-257 melanoma. The TGI in the assay on A498 renal was greater than 22.9 µM; with CAKI-1 renal it was greater than 25 µM; in the assay with HCT-15 colon it was greater than 25 µM; in the assay with HS 578T breast it was greater than 25 µM; in the assay with M14 melanoma, 19 µM; with MALME-3M melanoma, 18.7 µM. For the same molecule, the TGI in the assay with OVCAR-8 ovarian, with SK-MEL-28 melanoma, in the assay on SW-620 colon and in the assay on UACC-257 melanoma was greater than 25 µM in each case.
For the molecule `c1ccc2c(-c3nc4ccccc4[nH]3)cccc2c1`, the GI50 in the assay with A498 renal was 1.11 µM; in the assay on CAKI-1 renal, 3.18 µM; with HCT-15 colon, 1.82 µM; in the assay on HS 578T breast it was 2.49 µM; in the assay on M14 melanoma, 1.99 µM; in the assay on MALME-3M melanoma, 3.81 µM. Besides, the GI50 is 4.09 µM with OVCAR-8 ovarian, 4.64 µM in the assay on SK-MEL-28 melanoma, 1.91 µM with SW-620 colon and 3.87 µM in the assay with UACC-257 melanoma. Further, the TGI in the assay on A498 renal is 6.52 µM; with CAKI-1 renal it was greater than 100 µM; in the assay with HCT-15 colon it was greater than 100 µM; in the assay with HS 578T breast, 17.2 µM; in the assay on M14 melanoma it was 12 µM; in the assay with MALME-3M melanoma, 34.9 µM. In addition, the TGI in the assay with OVCAR-8 ovarian was 33.3 µM; in the assay on SK-MEL-28 melanoma, greater than 100 µM; in the assay on SW-620 colon, 53.8 µM; with UACC-257 melanoma it was 84.4 µM.
For `O=C1CSC(=S)N1Cc1cccnc1`, the GI50 with A498 renal is 22.7 µM; with CAKI-1 renal it was 12.4 µM; in the assay on HCT-15 colon, 2.87 µM; with HS 578T breast it was 17 µM; with M14 melanoma, 15.3 µM; with MALME-3M melanoma, 6.71 µM. Further, the GI50 is 11.3 µM with OVCAR-8 ovarian, 11.4 µM in the assay with SK-MEL-28 melanoma, 4.13 µM in the assay with SW-620 colon and 5.97 µM in the assay on UACC-257 melanoma. Also, the TGI was 56.2 µM with A498 renal; 33.4 µM in the assay on CAKI-1 renal; 11.8 µM in the assay on HCT-15 colon; 66.1 µM in the assay on HS 578T breast; 39.4 µM in the assay on M14 melanoma; 25.6 µM in the assay on MALME-3M melanoma. Besides, the TGI turned out to be 38 µM in the assay with OVCAR-8 ovarian, 27.3 µM in the assay on SK-MEL-28 melanoma, 16.8 µM in the assay with SW-620 colon and 21.9 µM in the assay on UACC-257 melanoma.
Consider `CC(=O)c1c(O)ccc2c(C)c(C(=O)O)oc12`, for which the GI50 in the assay with A498 renal, in the assay with CAKI-1 renal, with HCT-15 colon, in the assay with HS 578T breast, in the assay with M14 melanoma and in the assay on MALME-3M melanoma was greater than 100 µM throughout. Besides, the GI50 in the assay on OVCAR-8 ovarian, in the assay with SK-MEL-28 melanoma, in the assay with SW-620 colon and with UACC-257 melanoma was greater than 100 µM in each case. Also, the TGI with A498 renal, in the assay on CAKI-1 renal, in the assay with HCT-15 colon, in the assay on HS 578T breast, in the assay with M14 melanoma and in the assay with MALME-3M melanoma was greater than 100 µM in each case. The TGI with OVCAR-8 ovarian, in the assay with SK-MEL-28 melanoma, with SW-620 colon and in the assay on UACC-257 melanoma was greater than 100 µM in each case.
Turning to `NC(N)=N/N=C(/c1ccccc1)c1ccc(Cl)cc1`, the GI50 in the assay with A498 renal was 4.71 µM; with CAKI-1 renal, 13.9 µM; in the assay with HCT-15 colon, 5.8 µM; with HS 578T breast, 8.57 µM; in the assay with M14 melanoma, 12 µM; in the assay on MALME-3M melanoma, 53.3 µM. In addition, the GI50 with OVCAR-8 ovarian is 36.4 µM; in the assay on SK-MEL-28 melanoma, 8.03 µM; with SW-620 colon it was 3.93 µM; with UACC-257 melanoma, greater than 100 µM. In addition, the TGI in the assay with A498 renal was 28.7 µM; with CAKI-1 renal it was greater than 100 µM; in the assay on HCT-15 colon, greater than 100 µM; with HS 578T breast it was 51.7 µM; with M14 melanoma, 78.4 µM; in the assay on MALME-3M melanoma it was greater than 100 µM. Besides, the TGI with OVCAR-8 ovarian, in the assay with SK-MEL-28 melanoma, in the assay on SW-620 colon and in the assay with UACC-257 melanoma was greater than 100 µM throughout.
For `Cc1[nH]n(-c2ccc(S(=O)(=O)O)cc2)c(=O)c1N=Nc1ccccc1`, the TGI in the assay with A498 renal, with CAKI-1 renal, in the assay with HCT-15 colon, with HS 578T breast, in the assay on M14 melanoma and in the assay with MALME-3M melanoma was greater than 100 µM each time. Also, the TGI in the assay with OVCAR-8 ovarian, in the assay with SK-MEL-28 melanoma, with SW-620 colon and with UACC-257 melanoma was greater than 100 µM throughout.
As to `CC1CC(C)/C(=N/NC(N)=O)C(C(O)CC2CCC(=O)NC2=O)C1` (stereo not given), the GI50 was 4.94 µM with A498 renal; 1.22 µM in the assay with CAKI-1 renal; 3.39 µM in the assay with HCT-15 colon; 1.34 µM in the assay on HS 578T breast; 3.64 µM in the assay on M14 melanoma; 3.21 µM with MALME-3M melanoma. Also, the GI50 with OVCAR-8 ovarian was 2.71 µM; in the assay with SK-MEL-28 melanoma, 3.91 µM; in the assay with SW-620 colon, 2.9 µM; in the assay on UACC-257 melanoma, 3.48 µM. Moreover, the TGI in the assay with A498 renal was 92.4 µM; in the assay with CAKI-1 renal it was 20.3 µM; in the assay on HCT-15 colon, greater than 100 µM; in the assay on HS 578T breast, 8.25 µM; in the assay on M14 melanoma, greater than 100 µM; in the assay with MALME-3M melanoma, 41.8 µM. In addition, the TGI with OVCAR-8 ovarian is 57.5 µM; with SK-MEL-28 melanoma, greater than 100 µM; with SW-620 colon, greater than 100 µM; with UACC-257 melanoma, 50.4 µM.
